Structures can show the parent of a compound that is named as a salt. Where two headings read alike, the source gives them in different places.
Tests used:
[1] = 25° C.; cited from earlier work
[2] = Experimental: The (KH2PO4) solution was prepared according to the current USP (USP 34) (Table 25). Briefly, 50 mL of 0.2 M monobasic potassium phosphate (KH2PO4) was mixed with 39.1 mL of 0.2 M NaOH, and water was added to bring the solution to a final volume of 200 mL. During the test, the change in the pH of the solution also was measured for each addition.
in vivo [3] = details: beagle, dog; for AUC(0-t): AUCt
Experimental: Each dog was sampled at pre-dose before and after Propofol (when possible) and at 5, 10 and 20 minutes post-dose.

in vivo [4] = details: female, beagle, dog, 0.14 mg/kg
Experimental: The protocol was designed as outlined in Table 23.
The method requires a lithium heparinized plasma sample volume of 200 μl. The extraction is a liquid liquid extraction with hexane, and the extracts are injected using an HPLC system and an […] (Applied Biosystems) for the MS/MS detection, with a “Onyx monolithic Phenomenex C18 100×3.0 mm” column.
Concentrations of the samples are calculated using Watson® 7.2.0.03 directly from chromatograms after automatic integration by Analyst® 1.5.1 and expressed as ng/mL. Mean plasma concentrations will be calculated (when calculable, i.e. n>2) using individual concentrations and will be expressed with the corresponding standard deviation value and variation coefficients (when calculable, i.e. n>3) (with CV(%)=(SD/mean)×100). The individual plasma concentrations are tabulated for each dog and scheduled sampling time. Concentrations below the LLOQ are designated as “BLQ.” All BLQ concentrations are substituted by zero for calculation of the descriptive statistics of the concentrations.
Pharmacokinetic analysis is carried out using […]® (Version 4.3 (Thermo Electron Corporation)). An independent model (non compartmental analysis) is used. All BLQ values in the absorption phase are substituted by zero, except for BLQ values between evaluable concentrations, which are treated as missing values, before the calculation of the pharmacokinetic variables. The terminal BLQ values are ignored. The following pharmacokinetic parameters are calculated:
5 non-naive female dogs are used, each dog receiving the test substance by oral administration via nasogastric tube to the stomach (NG) administration, sublingual administration (SL), and by intravenous (IV) administration. There is a “wash-out” period of at least two weeks between each type of administration. Blood samples are drawn as follows:
A single NG dose of 0.14 mg/kg (under a volume of 5 ml/kg and a solution concentration of 0.028 mg/mL) is administered.
After a wash-out period of at least 2 weeks, dogs are sedated using propofol (6.5 mg/kg IV). They will be then given a single sublingual dose of 0.14 mg/kg (under a volume of 0.056 mL/kg and a solution concentration of 2.5 mg/mL).
After a wash-out period of at least 2 weeks, dogs are given a single IV dose of 0.14 mg/kg (under a volume of 1 mL/kg, bolus of approximately 30 sec, and a solution concentration of 0.14 mg/mL).
Blood sampling was designed to minimize animal suffering and to ensure the quality of the biological samples, and was adapted from basic procedures commonly used in studies performed in dogs. Serial blood samples (1 tube of approximately 5 mL) are collected from a jugular vein using vacuum tubes containing lithium heparin. After sealing each tube, the blood samples are manually agitated and stored on ice until centrifugation (within 30 minutes of sampling). The samples are centrifuged at 1500 g, at 4° C., for 10 minutes. The entire resultant plasma obtained from each tube is immediately transferred to suitably labeled polypropylene tubes (3 aliquots of plasma of at least 500 μl each), which are stored upright at approximately −80° C. and protected from light until bioanalysis.
The dogs are fasted overnight before each administration, and food is given to the dogs 4 hours after each treatment. […] In each of the three routes, a potassium phosphate buffer (pH 7.4) is used as the vehicle.
As referred to in Example 4, a study was designed in order to assess the effects of the compositions and methods of the invention. […] The pharmacokinetic parameters were then calculated. A summary of the study design is as follows:
Blood was collected in a fasted condition for all three routes of administration. […] Briefly, the method involved liquid-liquid extraction with hexane. The extracts were injected using an HPLC system and an API4000® (Applied Biosystems) for the MS/MS detection, with an “Onyx monolithic Phenomenex C18 100×3.0 mm” column.

[5] = iv, Cyclobenzaprine plasma concentration
[6] = po, Cyclobenzaprine plasma concentration

In the case of `CN(C)CCC=C1c2ccccc2C=Cc2ccccc21` [cyclobenzaprine HCl], the “acid dissociation constant (pKa) for the amine group” value [1] is listed as “approximately 8.5”, the pH value ([2]; 10 g added to 100 mL Phosphate Buffer Solution pH 7.4) is listed as 6.43 and the pH value ([2]; 10 g added to 100 mL purified water) is listed as 3.31. The pH value ([2]; 15 g added to 100 mL Phosphate Buffer Solution pH 7.4) was 6.29, the pH value ([2]; 15 g added to 100 mL purified water) was 3.24 and the pH value ([2]; 20 g added to 100 mL Phosphate Buffer Solution pH 7.4) was 6.21. It also gave a pH value ([2]; 20 g added to 100 mL purified water) of 3.16, a pH value ([2]; 25 g added to 100 mL Phosphate Buffer Solution pH 7.4) of 6.15 and a pH value ([2]; 25 g added to 100 mL purified water) of 3.11. For the same compound, the pH value ([2]; 30 g added to 100 mL Phosphate Buffer Solution pH 7.4) was 6.10, the pH value ([2]; 30 g added to 100 mL purified water) was 3.07 and the “solubility state in solution” value ([2]; […] at 7.4 containing K2HPO4 or KH2PO4) was “close to its saturation point”. For the same compound, the AUCt (in vivo [3]) was 22.78 ng·h/mL, the “Bioavailability F % IV without propofol vs sublingual with propofol” value (in vivo [3]) was 197.0% and the Cmax (in vivo [3]) was 92.23 ng/mL. The Tmax (in vivo [3]) was 10 min, the AUC(0-t) (in vivo [3]) was 17.4 ng·h/mL and the Cmax (in vivo [3]; Cmax) was 75.6 ng/mL. For the same compound, the AUCt (in vivo [3]; iv) was 11.56 ng·h/mL, the Cmax (in vivo [3]; iv) was 40.10 ng/mL and the Tmax (in vivo [3]; iv) was 5 min. It also gave an AUC(0-t) (in vivo [3]; iv) of 7.67 ng·h/mL, a Cmax (in vivo [3]; iv, Cmax) of 26.8 ng/mL and an AUC(0-inf) (in vivo [4]; iv, AUCinf) of 44.9 ± 4.15 ng·h/mL. The AUC(0-t) (in vivo [4]; iv, AUCt) was 43.5 ng·h/mL, the clearance (in vivo [4]; iv, Cl) was 52.3 mL/min/kg and the concentration at 10 min (in vivo [4]; [5]) was 21.1 ng/mL. It also gave a concentration at 20 min (in vivo [4]; [5]) of 17.3 ng/mL, a concentration at 0.5 h (in vivo [4]; [5]) of 14.3 ng/mL and a concentration at 1 h (in vivo [4]; [5]) of 9 ng/mL. The concentration at 2 h (in vivo [4]; [5]) was 6.5 ng/mL, the concentration at 3 h (in vivo [4]; [5]) was 4.43 ng/mL and the concentration at 24 h (in vivo [4]; [5]) was 0.1 ng/mL. The “Cl (Cl/F)” value (in vivo [4]; po) was 1206 mL/min/kg, the Kel (in vivo [4]; po) was 0.4782 h⁻¹ and the CL/F (in vivo [4]; po, Cl (Cl/F)) was 1210 mL/min/kg. For the same compound, the concentration at 6 h (in vivo [4]; [6]) was 0.15 ng/mL, the concentration at 8 h (in vivo [4]; [6]) was 0.126 ng/mL and the concentration at 10 h (in vivo [4]; [6]) was 0.112 ng/mL. For the same compound, the Vd/F (in vivo [4]; po, Vd (Vd/F)) was 151 L/kg and the half-life (in vivo [4]; po, t1/2) was 86.9 min.

Reference: patent US20260232578A1, “COMPOSITIONS AND METHODS FOR TRANSMUCOSAL ABSORPTION” (Tonix Pharma Limited, priority 2012, published 2026)
